For one series, the system named is Smn protein. Nature of the series: Smn protein assay in cultured cells (SMN HTRF). To be noted: 48 hours; for maximum fold (Fold) increase of Smn protein: SMA patient fibroblast cells, 7-point concentration data, fold increase relative to vehicle control (SMN HTRF); for EC1.5x (concentration giving 1.5-fold Smn protein increase): SMA Type 1 patient fibroblast cells (GM03813), 7-point concentration curve, SMN HTRF, concentration producing 1.5 times Smn protein vs DMSO vehicle control, read-out: EC1.5x for Smn protein expression. Format: cell-based, human. The method in brief: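 Smn in SMA fibroblast lysates, measured by anti-SMN HTRF after 48 h compound exposure; EC1.5x from fold change over vehicle.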
On the technique in general: In TR-FRET formats the signal depends on donor and acceptor labels being close together.

Series [1] has as its system SMN2 minigene (full length SMN2 minigene mRNA containing SMN2 exon 7). Nature of the series: SMN2 minigene mRNA splicing RT-qPCR assay in cultured cells. It counts as cell-based, human. To be noted: Homo sapiens, HEK293-H, read-out: EC1.5x for production of full length SMN2 mRNA. A digest of the protocol: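 Lysates → one-step RT-qPCR, minigene-specific primers (0.4 μM final) + GAPDH multiplex, 40 cycles. FL/GAPDH vs DMSO; EC1.5x, star-binned.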
(In general: Real-time PCR tracks product formation cycle by cycle.)

Where [2] appears, read: HEK293H cells stably transfected with SMN2-A minigene, 24 hours, 7-point concentration curve, 1.5-fold relative to vehicle-treated cells.

Read-outs that look alike come from different tables or passages of the source.

By melting point is commonly meant the temperature of the solid-liquid transition.

Compound `O=c1oc2cc(N3CCN4CCC3CC4)ccc2cc1-c1cn2cccc(F)c2n1` [Compound 501, 7-(1,4-diazabicyclo[3.2.2]non-4-yl)-3-(8-fluoroimidazo[1,2-a]pyridin-2-yl)-2H-chromen-2-one] gave a melting point of 175 to 178 °C. For the same compound, the “maximum fold (Fold) increase of Smn protein” value (“maximum fold (Fold) increase” below) in the series with Smn protein is “** (fold increase between >1.2 and ≤1.35)”. The EC (1.5-fold) in series [1] (24 h) was in the range of 0.1 to 0.3 µM.

`Cc1ccc2cc(-c3cc4ccc(N5C[C@@H](C)N[C@@H](C)C5)cc4oc3=O)cn2n1` [Compound 639, 7-[(3R,5S)-3,5-dimethylpiperazin-1-yl]-3-(2-methylpyrrolo[1,2-b]pyridazin-6-yl)-2H-chromen-2-one]: the melting point is 105 to 108 °C. For the same compound, the “maximum fold (Fold) increase” value in the series on Smn protein is given as “* (maximum fold increase of ≤1.2)”. For the same compound, in series [1] (setting [2]), the EC (1.5-fold) was under 0.1 µM.

In turn, `CN1CCN(c2ccc3cc(-c4cccnc4C(F)(F)F)c(=O)oc3c2)CC1` [Compound 125, 7-(4-methylpiperazin-1-yl)-3-[2-(trifluoromethyl)pyridin-3-yl]-2H-chromen-2-one] showed a melting point of 180 to 182 °C. For the same compound, the “maximum fold (Fold) increase” value with Smn protein is “* (maximum fold increase of ≤1.2)”. In series [1] (setting [2]), the EC (1.5-fold) was in the range of 1 to 3 µM.

`Cc1cccc2oc(-c3cc4ccc(N5C[C@@H](C)N[C@@H](C)C5)cc4oc3=O)nc12` [Compound 31, 7-[(3R,5S)-3,5-dimethylpiperazin-1-yl]-3-(4-methyl-1,3-benzoxazol-2-yl)-2H-chromen-2-one] returned a melting point of 243 to 245 °C. In addition, the “maximum fold (Fold) increase” value in the series with Smn protein was “* (maximum fold increase of ≤1.2)”. The EC (1.5-fold) in series [1] (setting [2]) lay within 3 to 30 µM.

For the compound `Cc1cn2cc(-c3cc4ccc(CCCNCc5ccncc5)cc4oc3=O)nc2c(C)n1` [Compound 936, 3-(6,8-dimethylimidazo[1,2-a]pyrazin-2-yl)-7-{3-[(pyridin-4-ylmethyl)amino]propyl}-2H-chromen-2-one], the melting point is 155 to 159 °C. In addition, in the series with Smn protein, the EC1.5x (concentration giving 1.5-fold Smn protein increase) is under 300 nM and the “maximum fold (Fold) increase” value is recorded as “***** (fold increase >1.65)”. Further, in series [1] (setting [2]), the EC (1.5-fold) is under 0.1 µM.

For the compound `Cc1cn2cc(-c3cc4ccc(N[C@@H]5C[C@H]6CCC[C@@H](C5)N6C)cc4oc3=O)nc2c(C)n1` [Compound 702, 3-(6,8-dimethylimidazo[1,2-a]pyrazin-2-yl)-7-{[(3-exo)-9-methyl-9-azabicyclo[3.3.1]non-3-yl]amino}-2H-chromen-2-one], the melting point lay within 279 to 287 °C. Moreover, the “maximum fold (Fold) increase” value with Smn protein is given as “* (maximum fold increase of ≤1.2)”. The EC (1.5-fold) in series [1] (24 h) was 1 to 3 µM.

The compound `Cc1csc(-c2cc3ccc(N4CCN[C@H](C)C4)cc3oc2=O)n1` [Compound 300, 7-[(3R)-3-methylpiperazin-1-yl]-3-(4-methyl-1,3-thiazol-2-yl)-2H-chromen-2-one] yielded a melting point of 176 °C. Further, the “maximum fold (Fold) increase” value with Smn protein is recorded as “* (maximum fold increase of ≤1.2)”. Moreover, the EC (1.5-fold) in series [1] (24 h) was in the range of 1 to 3 µM.

The compound `C[C@@H]1CN(c2ccc3cc(-c4nc(C(F)(F)F)cs4)c(=O)oc3c2)C[C@H](C)N1` [Compound 236, 7-[(3R,5S)-3,5-dimethylpiperazin-1-yl]-3-[4-(trifluoromethyl)-1,3-thiazol-2-yl]-2H-chromen-2-one] displayed a melting point of 215 to 219 °C. Also, the “maximum fold (Fold) increase” value in the series with Smn protein is listed as “* (maximum fold increase of ≤1.2)”. For the same compound, the EC (1.5-fold) in series [1] (setting [2]) was 1 to 3 µM.

Consider `O=c1oc2cc(N3CCNCC3)ccc2cc1-c1cccc(OC2CCC2)n1` [Compound 414, 3-[6-(cyclobutyloxy)pyridin-2-yl]-7-(piperazin-1-yl)-2H-chromen-2-one], for which the melting point lay within 166 to 168 °C. In addition, the “maximum fold (Fold) increase” value in the series on Smn protein was “* (maximum fold increase of ≤1.2)”. Moreover, the EC (1.5-fold) in series [1] (setting [2]) lay in the range of 3 to 30 µM.

`Cc1ccn2cc(-c3cc4ccc(N5CCCN(C)CC5)cc4oc3=O)nc2c1` [Compound 217, 7-(4-methyl-1,4-diazepan-1-yl)-3-(7-methylimidazo[1,2-a]pyridin-2-yl)-2H-chromen-2-one] gave a melting point of 200 to 206 °C. In the series on Smn protein, the “maximum fold (Fold) increase” value is “*** (fold increase between >1.35 and ≤1.5)”. Besides, in series [1] (setting [2]), the EC (1.5-fold) fell in the range of 0.3 to 1 µM.

`Cc1csc(-c2cc3ccc(N4CCN[C@@H](C)C4)cc3oc2=O)n1` [Cpd 283, 7-[(3S)-3-methylpiperazin-1-yl]-3-(4-methyl-1,3-thiazol-2-yl)-2H-chromen-2-one]: the melting point is 194 to 199 °C. The “maximum fold (Fold) increase” value in the series on Smn protein is reported as “* (maximum fold increase of ≤1.2)”. In series [1] (24 h), the EC (1.5-fold) was in the range of 0.3 to 1 µM.

Turning to `Cc1cc(C)c2nc(-c3cc4ccc(N5CCN(C)CC5)cc4oc3=O)cn2c1` [Compound 261, 3-(6,8-dimethylimidazo[1,2-a]pyridin-2-yl)-7-(4-methylpiperazin-1-yl)-2H-chromen-2-one], the melting point fell in the range of 232 to 238 °C. For the same compound, the “maximum fold (Fold) increase” value in the series on Smn protein is “** (fold increase between >1.2 and ≤1.35)”. Also, the EC (1.5-fold) in series [1] (setting [2]) was in the range of 0.3 to 1 µM.

On to `CN1CCCN(c2ccc3cc(-c4cn5cc(Cl)sc5n4)c(=O)oc3c2)CC1` [Compound 479, 3-(2-chloroimidazo[2,1-b][1,3]thiazol-6-yl)-7-(4-methyl-1,4-diazepan-1-yl)-2H-chromen-2-one], for which the melting point was in the range of 229 to 232 °C. Besides, the “maximum fold (Fold) increase” value with Smn protein is reported as “* (maximum fold increase of ≤1.2)”. Moreover, the EC (1.5-fold) in series [1] (setting [2]) lay in the range of 0.3 to 1 µM.

In turn, `CN(CCO)Cc1ccc2cc(-c3nc4c(Cl)cccc4s3)c(=O)oc2c1` [Compound 271, 3-(4-chloro-1,3-benzothiazol-2-yl)-7-{[(2-hydroxyethyl)(methyl)amino]methyl}-2H-chromen-2-one] had a melting point of 193 to 196 °C. Moreover, in the series with Smn protein, the EC1.5x (concentration giving 1.5-fold Smn protein increase) was 3000 to 10000 nM; the “maximum fold (Fold) increase” value is “**** (fold increase between >1.5 and ≤1.65)”. Moreover, the EC (1.5-fold) in series [1] (setting [2]) lay in the range of 1 to 3 µM.

`CNCCCc1ccc2cc(-c3cc(F)c4nc(C)cn4c3)c(=O)oc2c1` [Compound 913, 3-(8-fluoro-2-methylimidazo[1,2-a]pyridin-6-yl)-7-[3-(methylamino)propyl]-2H-chromen-2-one] showed a melting point of 163 to 166 °C. For the same compound, in the series on Smn protein, the EC1.5x (concentration giving 1.5-fold Smn protein increase) is under 300 nM and the “maximum fold (Fold) increase” value was “***** (fold increase >1.65)”. Further, the EC (1.5-fold) in series [1] (setting [2]) was under 0.1 µM.

With `CCC1CN(c2ccc3cc(-c4cn5cc(C)nc(C)c5n4)c(=O)oc3c2)CCN1` (stereo not drawn) [Compound 665, 3-(6,8-dimethylimidazo[1,2-a]pyrazin-2-yl)-7-(3-ethylpiperazin-1-yl)-2H-chromen-2-one], the melting point lay in the range of 211 to 215 °C. In addition, in the series with Smn protein, the EC1.5x (concentration giving 1.5-fold Smn protein increase) is under 300 nM and the “maximum fold (Fold) increase” value is reported as “***** (fold increase >1.65)”. Moreover, the EC (1.5-fold) in series [1] (setting [2]) was under 0.1 µM.

In the case of `Cc1cn2cc(-c3cc4ccc(CCNC(CO)CO)cc4oc3=O)nc2c(C)n1` [Compound 873, 7-{2-[(1,3-dihydroxypropan-2-yl)amino]ethyl}-3-(6,8-dimethylimidazo[1,2-a]pyrazin-2-yl)-2H-chromen-2-one], the melting point lay in the range of 217 to 221 °C. For the same compound, in the series on Smn protein, the EC1.5x (concentration giving 1.5-fold Smn protein increase) lay in the range of 300 to 1000 nM; the “maximum fold (Fold) increase” value was “**** (fold increase between >1.5 and ≤1.65)”. Besides, the EC (1.5-fold) in series [1] (setting [2]) was under 0.1 µM.

Compound `CN1CCCN(c2cc(F)c3cc(-c4nc5c(F)cccc5o4)c(=O)oc3c2)CC1` [Compound 369, 5-fluoro-3-(4-fluoro-1,3-benzoxazol-2-yl)-7-(4-methyl-1,4-diazepan-1-yl)-2H-chromen-2-one] yielded a melting point of 224 to 228 °C. Further, the “maximum fold (Fold) increase” value in the series with Smn protein was “** (fold increase between >1.2 and ≤1.35)”. Besides, in series [1] (setting [2]), the EC (1.5-fold) lay in the range of 0.1 to 0.3 µM.

For `Cc1cccn2cc(-c3cc4ccc(N5CCN6CCC5CC6)cc4oc3=O)nc12` [Compound 505, 7-(1,4-diazabicyclo[3.2.2]non-4-yl)-3-(8-methylimidazo[1,2-a]pyridin-2-yl)-2H-chromen-2-one], the melting point is 278 °C (dec.). Further, in the series on Smn protein, the “maximum fold (Fold) increase” value is listed as “* (maximum fold increase of ≤1.2)”. In addition, the EC (1.5-fold) in series [1] (24 h) lay in the range of 3 to 30 µM.

Turning to `CCC1CN(c2ccc3cc(-c4cn5cc(C)nc(C)c5n4)c(=O)oc3c2)CCN1C` (stereo not drawn) [Compound 676, 3-(6,8-dimethylimidazo[1,2-a]pyrazin-2-yl)-7-(3-ethyl-4-methylpiperazin-1-yl)-2H-chromen-2-one], the melting point was in the range of 258 to 262 °C. In addition, in the series on Smn protein, the EC1.5x (concentration giving 1.5-fold Smn protein increase) was under 300 nM and the “maximum fold (Fold) increase” value is “***** (fold increase >1.65)”. In series [1] (setting [2]), the EC (1.5-fold) is under 0.1 µM.

With `C[C@H]1CN(c2ccc3cc(-c4cn5cccc(F)c5n4)c(=O)oc3c2)CCN1` [Compound 525, 3-(8-fluoroimidazo[1,2-a]pyridin-2-yl)-7-[(3S)-3-methylpiperazin-1-yl]-2H-chromen-2-one], the melting point was 190 to 193 °C. For the same compound, in the series on Smn protein, the “maximum fold (Fold) increase” value was “*** (fold increase between >1.35 and ≤1.5)”. Also, the EC (1.5-fold) in series [1] (setting [2]) lay within 0.1 to 0.3 µM.

The values are drawn from patent USRE47689E1, “Compounds for treating spinal muscular atrophy” (PTC Therapeutics, Inc., priority 2011, dated 2019).
